From PubChem BioAssay (NCI)
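Growth conditions: 96-well plates. Treatment: test compound, 48 hours, 5 concentrations. Analysis: linear interpolation between bracketing concentrations; unreached endpoints set to highest concentration. Definition used: TGI = concentration required for complete inhibition of growth.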

Columns and labels:
Assay in all cases: inhibition of tumour cell growth, NCI panel, 48 h
A498 renal = tested on: A498 renal
ACHN renal = tested on: ACHN renal
CAKI-1 renal = tested on: CAKI-1 renal
COLO 205 colon = tested on: COLO 205 colon
DLD-1 colon = tested on: DLD-1 colon
DMS 114 small cell lung = tested on: DMS 114 small cell lung
EKVX NSCLC = tested on: EKVX NSCLC
HCC-2998 colon = tested on: HCC-2998 colon
HCT-15 colon = tested on: HCT-15 colon
HOP-62 NSCLC = tested on: HOP-62 NSCLC
K-562 leukemia = tested on: K-562 leukemia
KM20L2 colon = tested on: KM20L2 colon
LOX IMVI melanoma = tested on: LOX IMVI melanoma
LXFL 529 NSCLC = tested on: LXFL 529 NSCLC
M14 melanoma = tested on: M14 melanoma
M19-MEL melanoma = tested on: M19-MEL melanoma
NCI-H460 lung = tested on: NCI-H460 lung
NCI-H522 lung = tested on: NCI-H522 lung
OVCAR-4 ovarian = tested on: OVCAR-4 ovarian
OVCAR-5 ovarian = tested on: OVCAR-5 ovarian
RPMI-8226 leukemia = tested on: RPMI-8226 leukemia
RXF 393 renal = tested on: RXF 393 renal
SF-268 CNS = tested on: SF-268 CNS
SK-MEL-28 melanoma = tested on: SK-MEL-28 melanoma
SK-MEL-5 melanoma = tested on: SK-MEL-5 melanoma
SK-OV-3 ovarian = tested on: SK-OV-3 ovarian
SR leukemia = tested on: SR leukemia
SW-620 colon = tested on: SW-620 colon
TK-10 renal = tested on: TK-10 renal
U251 CNS = tested on: U251 CNS
UACC-257 melanoma = tested on: UACC-257 melanoma
UACC-62 melanoma = tested on: UACC-62 melanoma
UO-31 renal = tested on: UO-31 renal
786-0 renal = tested on: 786-0 renal
A549 NSCLC = tested on: A549 NSCLC
BT-549 breast = tested on: BT-549 breast
CCRF-CEM leukemia = tested on: CCRF-CEM leukemia
DU-145 prostate = tested on: DU-145 prostate
HCT-116 colon = tested on: HCT-116 colon
HL-60(TB) leukemia = tested on: HL-60(TB) leukemia
HOP-92 NSCLC = tested on: HOP-92 NSCLC
HS 578T breast = tested on: HS 578T breast
HT29 colon = tested on: HT29 colon
IGROV1 ovarian = tested on: IGROV1 ovarian
KM12 colon = tested on: KM12 colon
MALME-3M melanoma = tested on: MALME-3M melanoma
MCF7 breast = tested on: MCF7 breast
MDA-MB-231 breast = tested on: MDA-MB-231 breast
MDA-MB-435 = tested on: MDA-MB-435
MDA-N = tested on: MDA-N
MOLT-4 leukemia = tested on: MOLT-4 leukemia
NCI-H226 lung = tested on: NCI-H226 lung
NCI-H23 lung = tested on: NCI-H23 lung
NCI/ADR-RES ovarian = tested on: NCI/ADR-RES ovarian
OVCAR-3 ovarian = tested on: OVCAR-3 ovarian
OVCAR-8 ovarian = tested on: OVCAR-8 ovarian
PC-3 prostate = tested on: PC-3 prostate
SF-295 CNS = tested on: SF-295 CNS
SF-539 CNS = tested on: SF-539 CNS
SK-MEL-2 melanoma = tested on: SK-MEL-2 melanoma
SN12C renal = tested on: SN12C renal
SNB-19 CNS = tested on: SNB-19 CNS
SNB-75 CNS = tested on: SNB-75 CNS
T-47D breast = tested on: T-47D breast

CCCCCCCCCCCCCCCC[N+](C)(C)Cc1ccc(C[N+](C)(C)CCCCCCCCCCCCCCCC)cc1
TGI (A498 renal): > 100 µM | TGI (ACHN renal): > 100 µM | TGI (CAKI-1 renal): > 100 µM | TGI (COLO 205 colon): > 100 µM | TGI (DLD-1 colon): > 100 µM | TGI (DMS 114 small cell lung): 5.02 µM | TGI (EKVX NSCLC): > 100 µM | TGI (HCC-2998 colon): > 100 µM | TGI (HCT-15 colon): > 100 µM | TGI (HOP-62 NSCLC): > 100 µM | TGI (K-562 leukemia): 8.52 µM | TGI (KM20L2 colon): > 100 µM | TGI (LOX IMVI melanoma): 6.07 µM | TGI (LXFL 529 NSCLC): > 100 µM | TGI (M14 melanoma): > 100 µM | TGI (M19-MEL melanoma): > 100 µM | TGI (NCI-H460 lung): 8.71 µM | TGI (NCI-H522 lung): > 22.4 µM | TGI (OVCAR-4 ovarian): > 100 µM | TGI (OVCAR-5 ovarian): 4.67 µM | TGI (RPMI-8226 leukemia): > 100 µM | TGI (RXF 393 renal): 3.27 µM | TGI (SF-268 CNS): > 100 µM | TGI (SK-MEL-28 melanoma): 7.57 µM | TGI (SK-MEL-5 melanoma): > 100 µM | TGI (SK-OV-3 ovarian): 5.27 µM | TGI (SR leukemia): > 100 µM | TGI (SW-620 colon): > 100 µM | TGI (TK-10 renal): > 100 µM | TGI (U251 CNS): 3.82 µM | TGI (UACC-257 melanoma): > 100 µM | TGI (UACC-62 melanoma): > 100 µM | TGI (UO-31 renal): > 100 µM

O=C1N[C@H]2c3c(Cl)sc(Cl)c3C(=O)[C@H]2O1
TGI (786-0 renal): > 54.2 µM | TGI (A498 renal): 43.2 µM | TGI (A549 NSCLC): > 100 µM | TGI (ACHN renal): 35.6 µM | TGI (BT-549 breast): 45 µM | TGI (CAKI-1 renal): 49.5 µM | TGI (CCRF-CEM leukemia): > 21.2 µM | TGI (COLO 205 colon): > 51 µM | TGI (DU-145 prostate): > 54.6 µM | TGI (EKVX NSCLC): 27.9 µM | TGI (HCC-2998 colon): 19.9 µM | TGI (HCT-116 colon): > 35.6 µM | TGI (HCT-15 colon): 5.51 µM | TGI (HL-60(TB) leukemia): 4.98 µM | TGI (HOP-62 NSCLC): 42 µM | TGI (HOP-92 NSCLC): 41.6 µM | TGI (HS 578T breast): 43.5 µM | TGI (HT29 colon): 13.8 µM | TGI (IGROV1 ovarian): 14.4 µM | TGI (K-562 leukemia): > 30.7 µM | TGI (KM12 colon): > 100 µM | TGI (LOX IMVI melanoma): 13.9 µM | TGI (M14 melanoma): 52.6 µM | TGI (MALME-3M melanoma): 24.1 µM | TGI (MCF7 breast): > 100 µM | TGI (MDA-MB-231 breast): > 58.2 µM | TGI (MDA-MB-435): 36 µM | TGI (MDA-N): > 57.5 µM | TGI (MOLT-4 leukemia): 5.11 µM | TGI (NCI-H226 lung): 42.3 µM | TGI (NCI-H23 lung): 29 µM | TGI (NCI-H460 lung): 37 µM | TGI (NCI-H522 lung): 3.43 µM | TGI (NCI/ADR-RES ovarian): 37.2 µM | TGI (OVCAR-3 ovarian): 36.8 µM | TGI (OVCAR-4 ovarian): 37.5 µM | TGI (OVCAR-5 ovarian): 51.1 µM | TGI (OVCAR-8 ovarian): 12.2 µM | TGI (PC-3 prostate): > 62.5 µM | TGI (RPMI-8226 leukemia): > 80.8 µM | TGI (RXF 393 renal): > 79.8 µM | TGI (SF-268 CNS): 37 µM | TGI (SF-295 CNS): 34.6 µM | TGI (SF-539 CNS): 39.9 µM | TGI (SK-MEL-2 melanoma): > 59.9 µM | TGI (SK-MEL-28 melanoma): 24.7 µM | TGI (SK-MEL-5 melanoma): > 69 µM | TGI (SK-OV-3 ovarian): 52.1 µM | TGI (SN12C renal): > 47.6 µM | TGI (SNB-19 CNS): 46.5 µM | TGI (SNB-75 CNS): 34.9 µM | TGI (SR leukemia): 5.81 µM | TGI (SW-620 colon): 7.71 µM | TGI (T-47D breast): > 64.8 µM | TGI (TK-10 renal): > 100 µM | TGI (U251 CNS): 15.7 µM | TGI (UACC-257 melanoma): 36.2 µM | TGI (UACC-62 melanoma): 36.4 µM | TGI (UO-31 renal): 38.3 µM
